SMILES strings stand for the structures.

The test deals with T1, human TPO receptor (hTPOR) (Homo sapiens, UniProt P40238).
T1 construct: expressed in transfected cells; host or cells: BaF-B03 (murine IL-3 dependent cell line)
T1 sequence (P40238 26-635): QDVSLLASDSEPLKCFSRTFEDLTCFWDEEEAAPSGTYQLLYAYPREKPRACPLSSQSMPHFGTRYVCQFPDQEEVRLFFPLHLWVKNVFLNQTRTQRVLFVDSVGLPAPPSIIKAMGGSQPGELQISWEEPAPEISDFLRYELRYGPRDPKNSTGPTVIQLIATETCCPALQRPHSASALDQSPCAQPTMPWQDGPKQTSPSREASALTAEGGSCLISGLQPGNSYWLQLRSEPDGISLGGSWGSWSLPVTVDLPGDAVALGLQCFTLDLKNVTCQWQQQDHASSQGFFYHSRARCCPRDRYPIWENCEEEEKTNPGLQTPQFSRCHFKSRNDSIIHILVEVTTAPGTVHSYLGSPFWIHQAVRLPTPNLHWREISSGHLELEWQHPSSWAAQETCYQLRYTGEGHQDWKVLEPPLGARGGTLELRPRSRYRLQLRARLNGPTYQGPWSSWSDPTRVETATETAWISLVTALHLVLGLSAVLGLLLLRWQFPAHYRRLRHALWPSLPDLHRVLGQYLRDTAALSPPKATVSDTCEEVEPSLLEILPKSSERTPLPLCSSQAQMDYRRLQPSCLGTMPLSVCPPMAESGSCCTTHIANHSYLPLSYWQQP
In words: Thrombopoietic activity: proliferation of TPO dependent BaF/hTPOR cells (WST-1, absorbance at 450 nm). It counts as cell-based. As to conditions: 20 h + 4 h WST-1, ED50 = half concentration of the concentration showing the maximum thrombopoietic activity, Table 1. The gist of the method: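 Proliferation read-out: WST-1 absorbance at 450 nm after 20 h compound exposure plus 4 h reagent, using IL-3-deprived BaF/hTPOR cells (5×10^4 per well) dependent on human TPO receptor signalling. ED50 defined as half the concentration producing maximal activity.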
On the technique in general: Formazan colour is commonly taken as a measure of viable cells.
Turning to `CCOC(c1cccc(-c2csc(NC(=O)c3cc(Cl)c(C=C(C)C(=O)O)c(Cl)c3)n2)c1F)C(C)(C)C` (centres unmarked) [Compound B56, 3-(2,6-dichloro-4-{4-[3-(1-ethyloxy-2,2-dimethylpropyl)-2-fluorophenyl]thiazol-2-ylcarbamoyl}phenyl)-2-methylacrylic acid], the EC50 was 2700 pM. Then `CCCCCC(OC)c1cccc(-c2csc(NC(=O)c3cc(Cl)c(C=C(C)C(=O)O)c(Cl)c3)n2)c1F` (centres unmarked) [Compound B58, 3-(2,6-dichloro-4-{4-[2-fluoro-3-(1-methyloxyhexyl)phenyl]thiazol-2-ylcarbamoyl}phenyl)-2-methylacrylic acid], with 1500 pM; and `COC(CCC(C)C)c1cccc(-c2csc(NC(=O)c3cc(Cl)c(C=C(C)C(=O)O)c(Cl)c3)n2)c1F` (centres unmarked) [Compound B60, 3-(2,6-dichloro-4-{4-[2-fluoro-3-(1-methyloxy-4-methylpentyl)phenyl]thiazol-2-ylcarbamoyl}phenyl)-2-methylacrylic acid], with 750 pM. For the compound `CCCCCCCCCC(OC)c1cccc(-c2csc(NC(=O)c3cc(Cl)c(C=C(C)C(=O)O)c(Cl)c3)n2)c1F` (centres unmarked) [Compound B61, 3-(2,6-dichloro-4-{4-[2-fluoro-3-(1-methyloxydecyl)phenyl]thiazol-2-ylcarbamoyl}phenyl)-2-methylacrylic acid], the EC50 came out at 760 pM. For `CCOC(CC(C)(C)C)c1cccc(-c2csc(NC(=O)c3cc(Cl)c(C=C(C)C(=O)O)c(Cl)c3)n2)c1F` (centres unmarked) [Compound B62, 3-(2,6-dichloro-4-{4-[2-fluoro-3-(1-ethyloxy-3,3-dimethylbutyl)phenyl]thiazol-2-ylcarbamoyl}phenyl)-2-methylacrylic acid], the EC50 came out at 760 pM. Then `COC(c1cccc(-c2csc(NC(=O)c3cc(Cl)c(C=C(C)C(=O)O)c(Cl)c3)n2)c1F)C(C)(C)C` (centres unmarked) [Compound B64, 3-(2,6-dichloro-4-{4-[2-fluoro-3-(1-methyloxy-2,2-dimethylpropyl)phenyl]thiazol-2-ylcarbamoyl}phenyl)-2-methylacrylic acid], with 1190 pM; and `CCOCCCCOC(CC)c1cccc(-c2csc(NC(=O)c3cc(Cl)c(C=C(C)C(=O)O)c(Cl)c3)n2)c1F` (centres unmarked) [Compound B65, 3-[2,6-dichloro-4-(4-{3-[1-(4-ethyloxybutyloxy)propyl]-2-fluorophenyl]thiazol-2-ylcarbamoyl}phenyl)-2-methylacrylic acid], with 1040 pM; and `CC(=Cc1c(Cl)cc(C(=O)Nc2nc(-c3cccc(CCCOCC(C)(C)C)c3F)cs2)cc1Cl)C(=O)O` [Compound B66, 3-[2,6-dichloro-4-(4-{3-[3-(2,2-dimethylpropyloxy)propyl]-2-fluorophenyl]thiazol-2-ylcarbamoyl}phenyl)-2-methylacrylic acid], with 910 pM. As to `CCCCCOC(CC)c1cccc(-c2csc(NC(=O)c3cc(Cl)c(C=C(C)C(=O)O)c(Cl)c3)n2)c1F` (centres unmarked) [Compound B67, 3-[2,6-dichloro-4-(4-{3-[1-n-pentyloxypropyl]-2-fluorophenyl}thiazol-2-ylcarbamoyl)phenyl]-2-methylacrylic acid], the EC50 is 480 pM. `CCCCCCC(OC)c1cccc(-c2csc(NC(=O)c3cc(Cl)c(C=C(C)C(=O)O)c(Cl)c3)n2)c1F` (centres unmarked) [Compound B68, 3-(2,6-dichloro-4-{4-[2-fluoro-3-(1-methyloxyheptyl)phenyl]thiazol-2-ylcarbamoyl}phenyl)-2-methylacrylic acid]: the EC50 was found to be 820 pM. Then `CCCCCCCC(OC)c1cccc(-c2csc(NC(=O)c3cc(Cl)c(C=C(C)C(=O)O)c(Cl)c3)n2)c1F` (centres unmarked) [Compound B69, 3-(2,6-dichloro-4-{4-[2-fluoro-3-(1-methyloxyoctyl)phenyl]thiazol-2-ylcarbamoyl}phenyl)-2-methylacrylic acid], with 780 pM; and `CCCCCOC(CCCC)c1cccc(-c2csc(NC(=O)c3cc(Cl)c(C=C(C)C(=O)O)c(Cl)c3)n2)c1F` (centres unmarked) [Compound B70, 3-(2,6-dichloro-4-{4-[2-fluoro-3-(1-n-pentyloxypentyl)phenyl]thiazol-2-ylcarbamoyl}phenyl)-2-methylacrylic acid], with 430 pM. As to `CCCCC(OCC)c1cccc(-c2csc(NC(=O)c3cc(Cl)c(C=C(C)C(=O)O)c(Cl)c3)n2)c1F` (centres unmarked) [Compound B71, 3-(2,6-dichloro-4-{4-[3-(1-ethyloxypentyl)-2-fluorophenyl]thiazol-2-ylcarbamoyl}phenyl)-2-methylacrylic acid], the half-maximal effective concentration (EC50) was determined as 1000 pM. To `CCCCCCCCC(OC)c1cccc(-c2csc(NC(=O)c3cc(Cl)c(C=C(C)C(=O)O)c(Cl)c3)n2)c1F` (centres unmarked) [Compound B72, 3-(2,6-dichloro-4-{4-[2-fluoro-3-(1-methyloxynonyl)phenyl]thiazol-2-ylcarbamoyl}phenyl)-2-methylacrylic acid] belongs 780 pM; to `CCCCCC(CCc1cccc(-c2csc(NC(=O)c3cc(Cl)c(C=C(C)C(=O)O)c(Cl)c3)n2)c1F)OC` (centres unmarked) [Compound B73, 3-(2,6-dichloro-4-{4-[2-fluoro-3-(3-methyloxyoctyl)phenyl]thiazol-2-ylcarbamoyl}phenyl)-2-methylacrylic acid], 1350 pM. In the case of `CCC(OCCC(C)C)c1cccc(-c2csc(NC(=O)c3cc(Cl)c(C=C(C)C(=O)O)c(Cl)c3)n2)c1F` (centres unmarked) [Compound B74, 3-[2,6-dichloro-4-(4-{2-fluoro-3-[1-(3-methylbutyloxy)proptyl]phenyl}thiazol-2-ylcarbamoyl)phenyl]-2-methylacrylic acid], the EC50 was determined as 800 pM. `CCCCCCCCCCOCc1cccc(-c2csc(NC(=O)c3cc(Cl)c(C=C(C)C(=O)O)c(Cl)c3)n2)c1F` [Compound B76, 3-{2,6-dichloro-4-[4-(3-n-decyloxymethyl-2-fluorophenyl)thiazol-2-ylcarbamoyl]phenyl}-2-methylacrylic acid]: the EC50 was found to be 2980 pM. On to `CCCCCOCc1cccc(-c2csc(NC(=O)c3cc(Cl)c(C=C(C)C(=O)O)c(Cl)c3)n2)c1F` [Compound B77, 3-{2,6-dichloro-4-[4-(2-fluoro-3-{n-pentyloxymethyl}phenyl)thiazol-2-ylcarbamoyl]phenyl}-2-methylacrylic acid], for which the EC50 amounted to 3060 pM.

In the case of `CCCOC(CCC)c1cccc(-c2csc(NC(=O)c3cc(Cl)c(C=C(C)C(=O)O)c(Cl)c3)n2)c1F` (centres unmarked) [Compound B78, 3-(2,6-dichloro-4-{4-[2-fluoro-3-(1-n-propyloxybutyl)phenyl]thiazol-2-ylcarbamoyl}phenyl)-2-methylacrylic acid], the EC50 turned out to be 970 pM. Turning to `CCCCOC(CCC)c1cccc(-c2csc(NC(=O)c3cc(Cl)c(C=C(C)C(=O)O)c(Cl)c3)n2)c1F` (centres unmarked) [Compound B79, 3-(4-{4-[3-(1-n-butyloxybutyl)-2-fluorophenyl]thiazol-2-ylcarbamoyl}-2,6-dichlorophenyl)-2-methylacrylic acid], the EC50 stood at 770 pM.

On to `CCCCCOC(CCC)c1cccc(-c2csc(NC(=O)c3cc(Cl)c(C=C(C)C(=O)O)c(Cl)c3)n2)c1F` (centres unmarked) [Compound B80, 3-(2,6-dichloro-4-{4-[2-fluoro-3-(1-n-pentyloxybutyl)phenyl]thiazol-2-ylcarbamoyl}phenyl)-2-methylacrylic acid], for which the EC50 came to 700 pM. Consider `CCCOC(CC)c1cccc(-c2csc(NC(=O)c3cc(Cl)c(C=C(C)C(=O)O)c(Cl)c3)n2)c1F` (centres unmarked) [Compound B81, 3-(2,6-dichloro-4-{4-[2-fluoro-3-(1-n-propyloxypropyl)phenyl]thiazol-2-ylcarbamoyl}phenyl)-2-methylacrylic acid], for which the EC50 came to 1390 pM. To `CCCCOC(CC)c1cccc(-c2csc(NC(=O)c3cc(Cl)c(C=C(C)C(=O)O)c(Cl)c3)n2)c1F` (centres unmarked) [Compound B82, 3-(4-{4-[3-(1-n-butyloxypropyl)-2-fluorophenyl]thiazol-2-ylcarbamoyl}-2,6-dichlorophenyl)-2-methylacrylic acid] belongs 1070 pM; to `CCCCCCOC(CC)c1cccc(-c2csc(NC(=O)c3cc(Cl)c(C=C(C)C(=O)O)c(Cl)c3)n2)c1F` (centres unmarked) [Compound B83, 3-(2,6-dichloro-4-{4-[2-fluoro-3-(1-n-hexyloxypropyl)phenyl]thiazol-2-ylcarbamoyl}phenyl)-2-methylacrylic acid], 720 pM.

Turning to `CC(=Cc1c(Cl)cc(C(=O)Nc2nc(-c3cccc(CCCOCCCC(C)C)c3F)cs2)cc1Cl)C(=O)O` [Compound B84, 3-[2,6-dichloro-4-(4-[2-fluoro-3-[3-(4-methylpentyloxy)propyl]phenyl]thiazol-2-ylcarbamoyl)phenyl]-2-methylacrylic acid], the EC50 stood at 1020 pM. For the compound `CC(=Cc1c(Cl)cc(C(=O)Nc2nc(-c3cccc(CCCOCCC(C)(C)C)c3F)cs2)cc1Cl)C(=O)O` [Compound B85, 3-[2,6-dichloro-4-(4-[3-[3-(3,3-dimethylbutyloxy)propyl]-2-fluorophenyl]thiazol-2-ylcarbamoyl)phenyl]-2-methylacrylic acid], the EC50 came to 880 pM.

As a reminder, the EC50 is the concentration at which the effect is half-maximal.
